25 compounds from patent US20240101570A1 (AMGEN INC., priority 2020, published 2024) can be followed below.

One may read the IC50 as the concentration that inhibits the measured activity by half.

One experiment deals with HCT116 MTAP null cells. Briefly: HCT116 MTAP null cell proliferation / viability (CellTiter-Glo, 6 days). The note with it: HCT116-MTAP null, 144 h, HCT116 MTAP null cells, 6 days, CellTiter-Glo; read-out: HCT-116 MTAP null IC50. In kind it is cell-based. The essentials: (§1)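 CellTiter-Glo luminescence, 6-day exposure, RPMI 1640 + 10% FBS. Dosing: 1:3 series (8-9 pts, top 1 or 10 μM) or 1:2 series (22 pts, top 10 or 50 μM), DMSO control. IC50 = 50% of control via curve fit.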
Background: Cellular ATP, detected with luciferase, serves as a proxy for viable cell number.

A further experiment concerns HCT116 WT cells. The experiment in a line: HCT116 WT cell proliferation / viability (CellTiter-Glo, 6 days). In kind it is cell-based. The note with it: Homo sapiens, HCT-116, 144 h, HCT116 WT cells, 6 days, CellTiter-Glo; read-out: HCT-116 WT IC50. The essentials: as §1

Structures are written as SMILES.

On to `CCOc1ccc(CN(CC(C)C)C(=O)c2cc3c4c(c(N)nc3cn2)COC4)nn1` [Example 672, 4-amino-N-((6-ethoxy-3-pyridazinyl)methyl)-N-(2-methylpropyl)-1,3-dihydrofuro[3,4-c][1,7]naphthyridine-8-carboxamide], for which the IC50 with HCT116 MTAP null cells came out at 0.145 µM; with HCT116 WT cells, 7.46 µM.
For `CCOc1ccc(CN(CC2CC2)C(=O)c2cc3c4c(c(N)nc3cn2)COC4)nn1` [Example 753, 4-amino-N-(cyclopropylmethyl)-N-((6-ethoxy-3-pyridazinyl)methyl)-1,3-dihydrofuro[3,4-c][1,7]naphthyridine-8-carboxamide], in that order: 0.124 µM and 3.89 µM.
For `COCC(C)N(Cc1ccc(C(F)(F)F)nn1)C(=O)c1ccc2nc(N)c3c(c2c1)CO[C@@H]3C` (mixture of isomers) [Example 304, (3R)-4-amino-N-((2R)-1-methoxy-2-propanyl)-3-methyl-N-((6-(trifluoromethyl)-3-pyridazinyl)methyl)-1,3-dihydrofuro[3,4-c]quinoline-8-carboxamide and (3R)-4-amino-N-((2S)-1-methoxy-2-propanyl)-3-methyl-N-((6-(trifluoromethyl)-3-pyridazinyl)methyl)-1,3-dihydrofuro[3,4-c]quinoline-8-carboxamide], in that order: 0.026 µM and 0.352 µM.
Taken in the same sequence, the figures for `CC(C)N(Cc1ccc(C(F)(F)F)cn1)C(=O)c1cc2c3c(c(N)nc2cc1F)CCO3` [Example 536, 4-amino-7-fluoro-N-(2-propanyl)-N-((5-(trifluoromethyl)-2-pyridinyl)methyl)-2,3-dihydrofuro[3,2-c]quinoline-8-carboxamide] were 0.05 µM and 0.325 µM.
As to `C[C@H]1OCc2c1c(N)nc1cnc(C(=O)N(C)Cc3ccc(C(F)(F)F)nn3)cc21` [Example 317, (3R)-4-amino-N,3-dimethyl-N-((6-(trifluoromethyl)-3-pyridazinyl)methyl)-1,3-dihydrofuro [3,4-c][1,7]naphthyridine-8-carboxamide], the figures for the IC50 in the experiment on HCT116 MTAP null cells and in the experiment on HCT116 WT cells were 0.432 µM and 49.7 µM, respectively.
Taken in the same sequence, the figures for `C[C@H]1OCc2c1c(N)nc1cnc(C(=O)N(Cc3ccc(C#N)cn3)C3CC3)cc21` [Example 316, (3R)-4-amino-N-((5-cyano-2-pyridinyl)methyl)-N-cyclopropyl-3-methyl-1,3-dihydrofuro[3,4-c][1,7]naphthyridine-8-carboxamide] were 0.57 µM and 23.7 µM.
For `Cc1cc2nc(N)c3cnn(C)c3c2cc1C(=O)N(C)[C@@H](C)c1ccc(F)cn1` (single isomer, unassigned) [Example 591], in that order: 0.563 µM and 32.1 µM.
Turning to `Nc1nc2ncc(C(=O)N(Cc3ccc(C(F)(F)F)cn3)CC3CC3)cc2c2c1COC2` [Example 321, 4-amino-N-(cyclopropylmethyl)-N-((5-(trifluoromethyl)-2-pyridinyl)methyl)-1,3-dihydrofuro[3,4-c][1,8]naphthyridine-8-carboxamide], the figures for the IC50 in the experiment with HCT116 MTAP null cells and with HCT116 WT cells were 0.226 µM and 3.79 µM, respectively.
Taken in the same sequence, the figures for `COCC(C)(C)N(Cc1ccc(Br)nn1)C(=O)c1ccc2nc(N)c3c(c2c1)COC3` [Example 644, 4-amino-N-((6-bromo-3-pyridazinyl)methyl)-N-(1-methoxy-2-methyl-2-propanyl)-1,3-dihydrofuro[3,4-c]quinoline-8-carboxamide] were 2.79 µM and more than 10 µM.
For the compound `CCN(C(=O)c1cc2c3c(c(N)nc2cc1F)COC3)C(C)c1ccc(Cl)nc1` (racemic) [Example 739, 4-amino-N-((1R)-1-(6-chloro-3-pyridinyl)ethyl)-N-ethyl-7-fluoro-1,3-dihydrofuro[3,4-c]quinoline-8-carboxamide and 4-amino-N-((1S)-1-(6-chloro-3-pyridinyl)ethyl)-N-ethyl-7-fluoro-1,3-dihydrofuro[3,4-c]quinoline-8-carboxamide], the figures for the IC50 with HCT116 MTAP null cells and in the experiment with HCT116 WT cells were 0.071 µM and 2.22 µM, respectively.
Taken in the same sequence, the figures for `C[C@H]1OCc2c1c(N)nc1ccc(C(=O)N(C)Cc3ccc(C4CC4)cn3)cc21` [Example 356, (3R)-4-amino-N-((5-cyclopropyl-2-pyridinyl)methyl)-N,3-dimethyl-1,3-dihydrofuro[3,4-c]quinoline-8-carboxamide] were 0.092 µM and 5.36 µM.
As to `C[C@@H](c1ccc(F)cn1)N(C)C(=O)c1cc2c(cc1F)nc(N)c1cnn(C)c12` (single isomer, unassigned) [Example 874], the figures for the IC50 in the experiment on HCT116 MTAP null cells and in the experiment on HCT116 WT cells were 0.929 µM and 36 µM, respectively.
For `C[C@H](c1ccc(C(F)(F)F)nn1)N(C)C(=O)c1cc2c3c(c(N)nc2cc1F)[C@@H](C)OC3` (single isomer, unassigned) [Example 862], in that order: 0.031 µM and 2.19 µM.
Taken in the same sequence, the figures for `CC(C)CN(Cc1ccc(C(F)(F)F)cn1)C(=O)c1cnc2nc(N)c3c(c2c1)CCC3` [Example 607, 6-amino-N-isobutyl-N-((5-(trifluoromethyl)pyridin-2-yl)methyl)-8,9-dihydro-7H-cyclopenta[c][1,8]naphthyridine-2-carboxamide] were 0.154 µM and 1.37 µM.
For `C[C@H](c1ncccn1)N(Cc1ccc(C#N)cn1)C(=O)c1cc2c3c(c(N)nc2cn1)COC3` [Example 606, (R)-4-amino-N-((5-cyanopyridin-2-yl)methyl)-N-(1-(pyrimidin-2-yl)ethyl)-1,3-dihydrofuro[3,4-c][1,7]naphthyridine-8-carboxamide], in that order: 0.263 µM and 3.7 µM.
For `CCN(Cc1ccc(C(F)(F)F)cn1)C(=O)c1ccc2nc(N)c3ccncc3c2c1` [Example 428, 5-amino-N-ethyl-N-((5-(trifluoromethyl)-2-pyridinyl)methyl)benzo[c][2,6] naphthyridine-9-carboxamide], the figures for the IC50 in the experiment with HCT116 MTAP null cells and in the experiment with HCT116 WT cells were 0.101 µM and 1.25 µM, respectively.
For `CC(C)N(Cc1ccc(Cl)cn1)C(=O)c1ccc2nc(N)c3c(c2c1)CO[C@@H]3C` [Example 423, (3R)-4-amino-N-((5-chloro-2-pyridinyl)methyl)-3-methyl-N-(2-propanyl)-1,3-dihydrofuro[3,4-c]quinoline-8-carboxamide], in that order: 0.064 µM and 3.98 µM.
For `CN(Cc1ccc(S(F)(F)(F)(F)F)cc1)C(=O)c1ccc2nc(N)c3c(c2c1)COC3` [Example 510, 4-amino-N-methyl-N-(4-(pentafluoro-lambda~6~- sulfanyl)benzyl)-1,3-dihydrofuro[3,4-c]quinoline-8-carboxamide], in that order: 0.065 µM and 2.66 µM.
For `CCOc1ccc(CN(C(=O)c2cc3c4c(c(N)nc3cn2)[C@@H](C)OC4)C23CC(C2)C3)nn1` [Example 409, (3R)-4-amino-N-(bicyclo[1.1.1]pentan-1-yl)-N-((6-ethoxy-3-pyridazinyl)methyl)-3-methyl-1,3-dihydrofuro[3,4-c][1,7]naphthyridine-8-carboxamide], in that order: 0.056 µM and 5.87 µM.
Consider `C[C@H]1OCc2c1c(N)nc1cnc(C(=O)N(Cc3ccc(C4CC4)cn3)C3CC3)cc21` [Example 416, (3R)-4-amino-N-cyclopropyl-N-((5-cyclopropyl-2-pyridinyl)methyl)-3-methyl-1,3-dihydrofuro[3,4-c][1,7]naphthyridine-8-carboxamide], for which the IC50 in the experiment with HCT116 MTAP null cells was 0.062 µM; in the experiment on HCT116 WT cells, 8.23 µM.
For `CC(CF)N(Cc1ccc(C#N)cn1)C(=O)c1ccc2nc(N)c3c(c2c1)COC3` (racemic) [Example 473, 4-amino-N-((5-cyano-2-pyridinyl)methyl)-N-((2R)-1-fluoro-2-propanyl)-1,3-dihydrofuro[3,4-c]quinoline-8-carboxamide and 4-amino-N-((5-cyano-2-pyridinyl)methyl)-N-((2S)-1-fluoro-2-propanyl)-1,3-dihydrofuro[3,4-c]quinoline-8-carboxamide], in that order: 0.809 µM and more than 10 µM.
For `C[C@H]1OCc2c1c(N)nc1ccc(C(=O)N(Cc3ccc(C(F)(F)F)cn3)C34CC(C3)C4)cc21` [Example 380, (3R)-4-amino-N-(bicyclo[1.1.1]pentan-1-yl)-3-methyl-N-((5-(trifluoromethyl)-2-pyridinyl)methyl)-1,3-dihydrofuro[3,4-c]quinoline-8-carboxamide], in that order: 0.056 µM and 4.1 µM.
On to `CN(Cc1ccc(C(F)(F)F)cc1)C(=O)c1cc2c3c(c(N)nc2cn1)COC3` [Example 692, 4-amino-N-methyl-N-(4-(trifluoromethyl)benzyl)-1,3-dihydrofuro[3,4-c][1,7]naphthyridine-8-carboxamide], for which the IC50 was 0.449 µM in the experiment on HCT116 MTAP null cells and more than 10 µM with HCT116 WT cells.
For `CCN(C(=O)c1cc2c3c(c(N)nc2cc1Cl)COC3)C(C)c1ccc(Cl)nc1` (racemic) [Example 737, 4-amino-7-chloro-N-((1R)-1-(6-chloro-3-pyridinyl)ethyl)-N-ethyl-1,3-dihydrofuro[3,4-c]quinoline-8-carboxamide and 4-amino-7-chloro-N-((1S)-1-(6-chloro-3-pyridinyl)ethyl)-N-ethyl-1,3-dihydrofuro[3,4-c]quinoline-8-carboxamide], in that order: 0.059 µM and 2.38 µM.
Taken in the same sequence, the figures for `CN(Cc1ccc(C(F)(F)F)cn1)C(=O)c1ccc2nc(N)c3c(c2c1)COC3` [Example 450, 4-amino-N-methyl-N-((5-(trifluoromethyl)-2-pyridinyl)methyl)-1,3-dihydrofuro[3,4-c]quinoline-8-carboxamide] were 0.159 µM and 11.5 µM.
